Reference: ChEMBL document CHEMBL1201862, “PubChem BioAssay data set” (2004)
Active and inactive are the calls of the source.

Legend:
[1] = test system: INS1; experiment: INS-1E survival protection against cytokine death – cell-based, luminescence, retest, dose response (AID 449756); format: functional; conditions: Rattus norvegicus;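 also: cell death triggered by IL-1 beta plus TNF-alpha plus IFN-gamma mixture; protective hits raise ATP signal compared with cytokine alone wells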
[2] = non-specific 3'UTR reporter inhibition in Clone20-Shn3RL – cell-based, Renilla luciferase, cherry-picked, counter-screen for Shn3 inhibitor project, dose response (AID 624133); format: functional
[3] = molecular target: RNA-editing ligase 1, mitochondrial (Trypanosoma brucei brucei, UniProt P86926); experiment: inhibition of trypanosome RNA editing ligase – biochemical, fluorescence, Trypanosoma brucei, dose response (AID 1117295); format: functional
Sequence of RNA-editing ligase 1, mitochondrial (P86926 whole entry): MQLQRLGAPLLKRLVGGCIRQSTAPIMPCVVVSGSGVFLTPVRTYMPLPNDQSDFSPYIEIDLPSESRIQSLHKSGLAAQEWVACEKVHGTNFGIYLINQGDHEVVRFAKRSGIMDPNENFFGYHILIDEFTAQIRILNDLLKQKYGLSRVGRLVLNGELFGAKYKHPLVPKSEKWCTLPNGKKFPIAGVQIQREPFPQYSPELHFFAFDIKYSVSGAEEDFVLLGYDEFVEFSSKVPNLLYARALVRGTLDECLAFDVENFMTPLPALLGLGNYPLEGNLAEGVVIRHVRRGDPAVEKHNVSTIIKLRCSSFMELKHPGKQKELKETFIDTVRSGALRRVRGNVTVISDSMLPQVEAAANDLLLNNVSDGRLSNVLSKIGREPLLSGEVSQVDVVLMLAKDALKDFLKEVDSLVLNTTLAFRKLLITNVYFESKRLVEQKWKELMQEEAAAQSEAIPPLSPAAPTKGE

[4] = loss of viability in HepG2 cells – cell-based, CellTiter-Glo, cherry-picked, cytotoxicity control for Shn3 inhibitor project, dose response (AID 624134); format: functional
[5] = reduction of Shn3 3'UTR-driven luciferase in osteoblasts – cell-based, Clone20 osteoblasts, firefly luciferase, cherry-picked, dose response (AID 624132); format: functional;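 also: firefly luciferase luminescence from reporter carrying the Shn3 3'UTR in osteoblasts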
[6] = Luminescence Cell-Based Dose Retest to Confirm Inhibitors of Cancer Stem Cells. [Related pubchem assays (depositor defined):AID2717, AID2721]; format: functional; conditions: Homo sapiens
[7] = molecular target: Nonstructural protein 1 (Influenza A virus, UniProt Q194T2); format: functional, Influenza A virus (A/California/07/2009(H1N1))
Sequence of Nonstructural protein 1 (Q194T2 whole entry): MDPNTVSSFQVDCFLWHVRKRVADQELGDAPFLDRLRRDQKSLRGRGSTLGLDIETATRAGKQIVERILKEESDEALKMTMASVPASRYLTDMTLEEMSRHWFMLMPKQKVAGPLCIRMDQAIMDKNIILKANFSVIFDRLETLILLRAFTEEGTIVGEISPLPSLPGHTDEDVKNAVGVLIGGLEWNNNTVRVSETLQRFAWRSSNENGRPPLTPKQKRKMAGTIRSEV

[8] = molecular target: Protein Tat (Human immunodeficiency virus type 1 group M subtype B (isolate HXB2)(HIV-1), UniProt P04608); format: functional;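 also: tat binding to TAR RNA read out by fluorescence polarization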
Sequence of Protein Tat (P04608 whole entry): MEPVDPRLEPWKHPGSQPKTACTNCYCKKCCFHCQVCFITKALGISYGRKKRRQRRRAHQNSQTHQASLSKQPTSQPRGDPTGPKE

[9] = molecular target: E3 ubiquitin-protein ligase Mdm2 (Homo sapiens, UniProt Q00987); experiment: MDM2-luc reporter signal enhancers, multi-concentration potency testing, MDM2 ubiquitin-protein ligase inhibitor program, whole-cell format, luminescence detection, 384-well microplate (AID 1394); format: functional;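 also: MDM2 E3 inhibitors raise luminescence so EC50 is for signal enhancement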
Sequence of E3 ubiquitin-protein ligase Mdm2 (Q00987 whole entry): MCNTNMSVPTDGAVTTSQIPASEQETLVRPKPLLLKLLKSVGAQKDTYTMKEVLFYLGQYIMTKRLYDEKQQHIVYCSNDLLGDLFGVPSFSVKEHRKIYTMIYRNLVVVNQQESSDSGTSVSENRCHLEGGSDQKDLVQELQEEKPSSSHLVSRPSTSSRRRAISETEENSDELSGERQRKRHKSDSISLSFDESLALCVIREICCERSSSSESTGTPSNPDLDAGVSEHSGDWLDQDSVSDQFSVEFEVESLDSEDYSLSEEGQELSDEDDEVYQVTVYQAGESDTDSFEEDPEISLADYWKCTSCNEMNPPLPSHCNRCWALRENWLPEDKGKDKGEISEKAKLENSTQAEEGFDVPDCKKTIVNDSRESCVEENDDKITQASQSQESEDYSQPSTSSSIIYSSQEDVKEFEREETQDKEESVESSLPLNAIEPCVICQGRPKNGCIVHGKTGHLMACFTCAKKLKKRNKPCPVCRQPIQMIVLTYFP

[10] = molecular target: T1, E3 ubiquitin-protein ligase XIAP (Homo sapiens, UniProt P98170); experiment: Counter Screen using XIAP-Bir3 for Chemical Antagonists of Bir1/2 domains of IAP-family anti-apoptotic proteins. [Related pubchem assays (depositor defined):AID1018, AID1449, AID1514, AID1638, AID1749, AID1750, AID488957, AID488963]
T1 sequence (P98170 whole entry): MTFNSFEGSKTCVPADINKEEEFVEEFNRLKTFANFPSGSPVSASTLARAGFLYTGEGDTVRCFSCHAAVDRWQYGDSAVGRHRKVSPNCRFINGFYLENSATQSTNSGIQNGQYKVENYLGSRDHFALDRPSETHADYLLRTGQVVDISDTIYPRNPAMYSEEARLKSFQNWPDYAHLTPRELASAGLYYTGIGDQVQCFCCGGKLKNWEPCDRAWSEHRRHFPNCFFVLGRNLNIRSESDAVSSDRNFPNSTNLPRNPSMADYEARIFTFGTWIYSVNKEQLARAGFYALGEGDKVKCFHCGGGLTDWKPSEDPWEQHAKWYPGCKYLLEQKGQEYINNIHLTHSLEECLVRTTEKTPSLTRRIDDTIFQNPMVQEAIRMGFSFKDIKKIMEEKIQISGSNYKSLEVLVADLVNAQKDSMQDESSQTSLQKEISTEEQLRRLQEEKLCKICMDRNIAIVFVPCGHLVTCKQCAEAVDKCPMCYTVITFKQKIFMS

[11] = molecular target: T1, E3 ubiquitin-protein ligase XIAP; experiment: small molecules displacing peptide from XIAP – biochemical, IAP family, fluorescence polarization (AID 1018); format: functional
[12] = molecular target: Bcl-2-like protein 1 (Homo sapiens, UniProt Q07817); experiment: blockers of BCLXL peptide binding – biochemical, fluorescence polarization, 1536-well, selectivity assay for MCL1 inhibitor project, dose response (AID 2218)
Sequence of Bcl-2-like protein 1 (Q07817 whole entry): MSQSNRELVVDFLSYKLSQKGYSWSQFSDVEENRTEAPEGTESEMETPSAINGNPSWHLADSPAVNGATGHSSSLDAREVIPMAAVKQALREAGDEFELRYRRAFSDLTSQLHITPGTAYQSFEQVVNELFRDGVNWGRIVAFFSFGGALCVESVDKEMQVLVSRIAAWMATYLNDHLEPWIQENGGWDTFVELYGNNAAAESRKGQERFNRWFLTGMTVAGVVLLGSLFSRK

[13] = molecular target: Induced myeloid leukemia cell differentiation protein Mcl-1 (Homo sapiens, UniProt Q07820); experiment: blockers of MCL1 binding to BIM peptide – biochemical, fluorescence polarization, BIM-BH3 peptide, 1536-well, dose response (AID 2217)
Sequence of Induced myeloid leukemia cell differentiation protein Mcl-1 (Q07820 whole entry): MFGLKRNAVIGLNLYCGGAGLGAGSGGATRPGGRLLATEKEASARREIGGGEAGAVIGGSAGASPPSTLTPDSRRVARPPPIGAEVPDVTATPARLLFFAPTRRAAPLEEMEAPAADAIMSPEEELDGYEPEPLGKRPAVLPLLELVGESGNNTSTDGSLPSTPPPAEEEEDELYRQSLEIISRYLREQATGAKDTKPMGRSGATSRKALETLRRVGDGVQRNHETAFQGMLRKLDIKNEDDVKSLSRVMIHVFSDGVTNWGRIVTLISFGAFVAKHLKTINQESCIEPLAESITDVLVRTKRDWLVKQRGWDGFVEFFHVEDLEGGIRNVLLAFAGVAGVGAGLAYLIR

[14] = molecular target: Large T antigen (Simian virus 40, UniProt P03070); format: functional, Betapolyomavirus macacae;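 also: Confirmatory-stage PubChem screen for compounds that inhibit SV40 T antigen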
Sequence of Large T antigen (P03070 whole entry, the tested form may be a part): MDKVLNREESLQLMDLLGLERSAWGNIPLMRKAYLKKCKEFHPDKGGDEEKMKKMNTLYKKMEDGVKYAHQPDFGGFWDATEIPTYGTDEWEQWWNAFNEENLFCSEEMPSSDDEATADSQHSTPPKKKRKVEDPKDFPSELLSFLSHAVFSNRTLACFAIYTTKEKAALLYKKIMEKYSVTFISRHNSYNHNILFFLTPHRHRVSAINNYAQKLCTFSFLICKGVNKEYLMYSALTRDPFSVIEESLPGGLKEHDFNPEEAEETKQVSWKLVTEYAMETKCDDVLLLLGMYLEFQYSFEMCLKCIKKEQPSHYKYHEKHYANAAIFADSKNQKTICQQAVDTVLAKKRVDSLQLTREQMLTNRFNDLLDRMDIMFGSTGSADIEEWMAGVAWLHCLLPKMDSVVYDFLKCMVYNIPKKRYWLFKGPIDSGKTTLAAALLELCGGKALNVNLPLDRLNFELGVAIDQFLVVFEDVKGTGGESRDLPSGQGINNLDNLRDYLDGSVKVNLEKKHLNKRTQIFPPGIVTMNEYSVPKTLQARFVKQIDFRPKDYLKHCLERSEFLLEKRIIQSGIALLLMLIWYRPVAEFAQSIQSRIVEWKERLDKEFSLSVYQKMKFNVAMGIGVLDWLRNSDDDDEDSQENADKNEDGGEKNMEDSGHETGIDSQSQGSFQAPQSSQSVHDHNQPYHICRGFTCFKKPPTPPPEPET

[15] = molecular target: T2, Estrogen receptor (Homo sapiens, UniProt P03372); experiment: ERα coactivator recruitment enhancers – biochemical, TR-FRET, ERα LBD, dose response (AID 737)
T2 sequence (P03372 whole entry): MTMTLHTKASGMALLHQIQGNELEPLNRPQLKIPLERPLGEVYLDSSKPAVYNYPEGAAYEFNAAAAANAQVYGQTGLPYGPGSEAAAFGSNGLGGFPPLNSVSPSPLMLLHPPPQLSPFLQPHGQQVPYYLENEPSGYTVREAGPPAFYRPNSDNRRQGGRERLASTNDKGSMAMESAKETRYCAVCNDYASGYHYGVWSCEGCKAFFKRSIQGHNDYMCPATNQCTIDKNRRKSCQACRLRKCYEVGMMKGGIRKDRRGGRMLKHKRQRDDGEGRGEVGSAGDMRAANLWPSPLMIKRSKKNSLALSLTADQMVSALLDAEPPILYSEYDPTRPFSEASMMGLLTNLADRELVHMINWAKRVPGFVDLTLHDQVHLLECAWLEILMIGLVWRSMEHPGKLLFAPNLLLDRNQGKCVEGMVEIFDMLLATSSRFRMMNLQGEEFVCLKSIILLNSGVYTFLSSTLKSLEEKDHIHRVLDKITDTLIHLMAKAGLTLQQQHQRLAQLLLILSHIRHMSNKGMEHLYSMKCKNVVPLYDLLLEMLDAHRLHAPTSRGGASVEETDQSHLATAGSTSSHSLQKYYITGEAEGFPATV

[16] = molecular target: Estrogen receptor beta (Homo sapiens, UniProt Q92731);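 also: recombinant ER-beta bound to coactivator SRC1 peptide in presence of estradiol agonist; inhibitors block coactivator peptide binding and lower the FRET signal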
Sequence of Estrogen receptor beta (Q92731 whole entry, the tested form may be a part): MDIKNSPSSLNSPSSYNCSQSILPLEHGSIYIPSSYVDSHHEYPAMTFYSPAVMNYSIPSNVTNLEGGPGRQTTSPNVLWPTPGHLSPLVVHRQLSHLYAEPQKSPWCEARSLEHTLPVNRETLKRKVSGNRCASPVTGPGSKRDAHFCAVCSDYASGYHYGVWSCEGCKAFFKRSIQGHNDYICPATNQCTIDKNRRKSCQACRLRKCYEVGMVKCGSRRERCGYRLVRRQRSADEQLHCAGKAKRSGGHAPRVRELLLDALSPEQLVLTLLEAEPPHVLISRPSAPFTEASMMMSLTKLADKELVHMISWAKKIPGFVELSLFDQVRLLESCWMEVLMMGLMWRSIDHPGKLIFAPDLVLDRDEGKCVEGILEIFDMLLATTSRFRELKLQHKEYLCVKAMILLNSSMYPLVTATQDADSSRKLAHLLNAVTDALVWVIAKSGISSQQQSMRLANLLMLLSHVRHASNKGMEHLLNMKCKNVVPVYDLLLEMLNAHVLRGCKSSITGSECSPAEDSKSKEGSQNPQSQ

[17] = molecular target: T3, Oxysterols receptor LXR-beta (Homo sapiens, UniProt P55055); format: functional, cell-based;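 also: Cell-based luminescence dose-response assay of agonist activity at LXR, run as a confirmatory counterscreen to a daf-12 agonist screen; HEK293 cells with Gal4-LXR fusion and GAL4-driven luciferase reporter; agonist potency from rising luciferase signal of a Gal4-LXR reporter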
T3 sequence (P55055 whole entry): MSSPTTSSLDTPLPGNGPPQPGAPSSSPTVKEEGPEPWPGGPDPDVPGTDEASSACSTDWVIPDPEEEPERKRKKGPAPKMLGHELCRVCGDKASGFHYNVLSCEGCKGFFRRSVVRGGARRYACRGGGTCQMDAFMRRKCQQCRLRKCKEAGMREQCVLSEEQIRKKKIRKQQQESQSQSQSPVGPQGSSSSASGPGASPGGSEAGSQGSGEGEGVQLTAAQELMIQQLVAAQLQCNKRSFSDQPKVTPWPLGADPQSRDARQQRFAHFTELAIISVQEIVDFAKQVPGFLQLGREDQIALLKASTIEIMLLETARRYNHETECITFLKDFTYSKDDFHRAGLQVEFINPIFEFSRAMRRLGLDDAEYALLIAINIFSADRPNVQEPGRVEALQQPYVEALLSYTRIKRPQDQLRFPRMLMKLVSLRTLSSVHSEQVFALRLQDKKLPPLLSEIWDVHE

[18] = cells
[19] = Luminescence Cell-Based Dose Response to Identify Activators of 5'UTR Stem-Loop Driven Prion Protein mRNA Translation in H4-C Neuroglioblastoma Cells. [Related pubchem assays: 1829 (Project Summary), 1814 (Primary HTS)]; format: functional
[20] = Luminescence Cell-Based Dose Response to Identify Activators of Luciferase Translation or Activity in H4-C Neuroglioblastoma Cells. [Related pubchem assays: 1829 (Project Summary), 1814 (Primary HTS)]; format: functional
[21] = Luminescence Cell-Based Dose Confirmation to Identify Activators of 5'UTR Stem-Loop Driven Alpha-Synuclein mRNA Translation in H4 Neuroglioblastoma Cells. [Related pubchem assays: 1829 (Project Summary), 1814 (Primary HTS)]; format: functional
[22] = test system: H4; experiment: Luminescence Cell-Based Dose Response HTS to Identify Activators of 5'UTR Stem-Loop Driven Prion Protein mRNA Translation in H4 Neuroglioblastoma Cells. [Related pubchem assays: 1829 (Project Summary), 1814 (Primary HTS)]; format: functional; conditions: Homo sapiens
[23] = molecular target: T4, Tyrosine-protein phosphatase non-receptor type 7 (Homo sapiens, UniProt P35236); experiment: HePTP tyrosine phosphatase activity blockers – biochemical, absorbance, leukemia target, primary screen (AID 521); format: functional
T4 sequence (P35236 whole entry): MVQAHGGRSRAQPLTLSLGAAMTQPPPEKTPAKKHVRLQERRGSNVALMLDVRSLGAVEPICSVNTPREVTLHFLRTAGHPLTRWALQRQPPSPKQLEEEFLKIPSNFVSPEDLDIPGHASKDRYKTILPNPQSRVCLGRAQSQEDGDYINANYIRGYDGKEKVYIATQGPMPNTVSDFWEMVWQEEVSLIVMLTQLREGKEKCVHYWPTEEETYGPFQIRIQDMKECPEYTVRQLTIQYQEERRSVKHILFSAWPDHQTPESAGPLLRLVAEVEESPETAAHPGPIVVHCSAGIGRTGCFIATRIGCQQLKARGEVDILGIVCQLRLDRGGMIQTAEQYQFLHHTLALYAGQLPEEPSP

[24] = molecular target: Kallikrein-7 (Homo sapiens, UniProt P49862); experiment: Fluorescence Intensity-based biochemical primary high throughput dose response assay to identify activators of kallikrein-7 (K7) zymogen.
Sequence of Kallikrein-7 (P49862 whole entry): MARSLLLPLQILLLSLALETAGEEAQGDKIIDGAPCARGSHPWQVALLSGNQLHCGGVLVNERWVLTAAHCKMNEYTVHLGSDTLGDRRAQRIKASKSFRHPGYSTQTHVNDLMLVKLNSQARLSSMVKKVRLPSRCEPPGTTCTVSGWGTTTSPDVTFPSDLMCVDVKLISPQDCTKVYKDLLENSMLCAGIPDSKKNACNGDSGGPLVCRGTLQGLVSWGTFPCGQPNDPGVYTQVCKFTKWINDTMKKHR

[25] = Luminescence Cell-Based Dose Response HTS to Identify Activators of Luciferase Translation or Activity in H4 […] Cells. [Related pubchem assays: 1829 (Project Summary), 1814 (Primary HTS)]; format: functional
[26] = cytotoxicity in MITF-independent A375 cells – cell-based, CellTiter-Glo luminescence, dry powder, set 4, counter-screen for MITF inhibitor project, dose response (AID 624364); format: functional; conditions: A-375;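 also: A375 melanoma cells are MITF independent so this is a counter screen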
[27] = viability loss in MITF-independent A375 cells – cell-based, CellTiter-Glo luminescence, dry powder, set 2, counter-screen for MITF inhibitor project, dose response (AID 624489); format: functional; conditions: A-375;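 also: actives are compounds lowering A375 viability meaning general cytotoxicity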
[28] = Trypanosoma cruzi growth suppression in host cells – NIH3T3 host cells, beta-gal luminescence, confirmation (AID 2044); format: functional, cell-based;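 also: intracellular parasites grown in NIH/3T3 mouse fibroblasts as host cells; luminescent beta-galactosidase reporter signal from transgenic T. cruzi replicating inside host cells; inhibitors lower the luminescence signal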
[29] = NIH-3T3 fibroblast cytotoxicity, dose response, cytotoxicity control, cell-based, fluorescence, Alamar Blue, secondary assay (AID 2327); format: functional;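 also: NIH-3T3 mouse fibroblasts cultured with fluconazole at 8 µg/mL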
[30] = molecular target: T5, Mannose-6-phosphate isomerase (Homo sapiens, UniProt P34949); experiment: MPI inhibition at elevated mannose 6-phosphate – biochemical, fluorescence intensity, high mannose 6-phosphate, primary screen (AID 1220)
T5 sequence (P34949 whole entry): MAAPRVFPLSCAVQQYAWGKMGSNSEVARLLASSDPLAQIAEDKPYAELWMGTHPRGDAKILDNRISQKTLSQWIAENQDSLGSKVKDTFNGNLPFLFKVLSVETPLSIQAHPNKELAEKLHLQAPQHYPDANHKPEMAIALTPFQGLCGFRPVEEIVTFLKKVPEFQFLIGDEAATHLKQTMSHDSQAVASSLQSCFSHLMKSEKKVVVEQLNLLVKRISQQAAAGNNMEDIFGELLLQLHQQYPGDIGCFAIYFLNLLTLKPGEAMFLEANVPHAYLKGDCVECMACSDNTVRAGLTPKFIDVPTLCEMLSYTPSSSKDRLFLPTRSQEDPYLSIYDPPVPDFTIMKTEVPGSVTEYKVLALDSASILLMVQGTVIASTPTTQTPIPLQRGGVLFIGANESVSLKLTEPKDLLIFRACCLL

[31] = molecular target: Glucose-6-phosphate 1-dehydrogenase (Homo sapiens, UniProt P11413); experiment: inhibition of Homo sapiens G6PD, dose series – biochemical, fluorescence, selectivity assay for P. falciparum G6PD inhibitor project, dose response (AID 504792); format: functional
Sequence of Glucose-6-phosphate 1-dehydrogenase (P11413 whole entry): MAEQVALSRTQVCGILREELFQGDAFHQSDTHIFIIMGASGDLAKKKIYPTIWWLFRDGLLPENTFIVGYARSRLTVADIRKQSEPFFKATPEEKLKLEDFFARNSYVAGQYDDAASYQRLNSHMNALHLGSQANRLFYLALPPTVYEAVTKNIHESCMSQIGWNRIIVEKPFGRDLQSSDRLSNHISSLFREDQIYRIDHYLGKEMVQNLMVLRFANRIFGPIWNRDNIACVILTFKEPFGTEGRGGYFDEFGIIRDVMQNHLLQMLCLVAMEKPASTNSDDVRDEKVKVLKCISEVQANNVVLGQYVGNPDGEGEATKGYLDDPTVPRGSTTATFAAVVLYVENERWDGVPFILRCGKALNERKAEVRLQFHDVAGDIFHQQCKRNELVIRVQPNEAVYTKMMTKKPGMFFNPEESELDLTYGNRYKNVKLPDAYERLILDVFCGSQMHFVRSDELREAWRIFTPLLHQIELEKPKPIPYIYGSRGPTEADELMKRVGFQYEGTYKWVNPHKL

[32] = fluconazole-exposed Candida albicans growth modulators – fluorescence, retest, confirmation (AID 2467); format: functional, cell-based
[33] = NIH3T3 cell viability loss – ATP luminescence, mouse fibroblasts, counter-screen, dose response (AID 2010); format: functional, cell-based;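 also: cells exposed to compound for about 90 hours before reading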
[34] = test system: Vero; experiment: cells; format: functional; conditions: Chlorocebus sabaeus

COc1ccc(C(CCNCc2ccc(OC(C)C)cc2)c2ccccc2OC)cc1 (configuration not stated)
AC50 [1]: 7.21 µM (active) | AC50 [2]: 4.38 µM (active) | IC50 [3]: > 96.6 µM (inactive) | AC50 [4]: 15.3 µM (active) | AC50 [5]: 6.44 µM (active) | AC50 [6]: 5.99 µM (active)

Oc1ccccc1C=Nc1ccc(F)c2c(O)[nH]nc12
IC50 [7]: 41.6 µM (active) | IC50 [8]: 3.3 µM (inconclusive)

Cc1cc(NC(=O)CSc2nc(C(C)C)nc3c2c(=O)n(C)c(=O)n3C)no1
EC50 [9]: 12.3 µM (not active)

CC(=O)Nc1ccc(S(=O)(=O)N(C)CC(=O)OCC(=O)N2CCc3ccccc32)cc1
EC50 [9]: 149 µM (not active)

COc1ccccc1Cn1c(=O)c2ccccc2n2c(SCC(=O)N3CCCCC3)nnc12
IC50 [10]: > 100 µM (inactive) | IC50 [11]: > 100 µM (not active)

O=C(O)C1Nc2ccc(OC(F)(F)F)cc2C2C=CCC12 (configuration not stated)
IC50 [12]: 60.6 µM (not active) | IC50 [13]: 8.63 µM (active) | IC50 [14]: 12.7 µM (active)

Cc1ccc(NC(=O)CSc2nnc(-c3cnccn3)n2Cc2ccco2)cc1C
EC50 [15]: 37.6 µM (not active)

CN(C1CCCCC1)S(=O)(=O)c1ccc(S(=O)(=O)N2CCN(CCC#N)CC2)cc1
IC50 [16]: > 50 µM (not active)

CC(=O)Nc1ccc(NC(=O)CSCc2cnn(-c3ccccc3)c2-n2cccc2)cc1
IC50 [8]: > 100 µM (active)

Cc1cc(/C=C2\SC(=S)N=C2O)c(C)n1-c1ccccc1
EC50 [17]: > 67.6 µM (inactive)

Cc1cc(/C=C2\SC(=S)NC2=O)c(C)n1-c1ccccc1
EC50 [18]: > 67.6 µM (inactive)

CC(C)(C)c1ccc(OCCn2ccccc2=O)cc1
EC50 [19]: 0.546 µM (active) | EC50 [20]: 0.237 µM (active) | EC50 [21]: 0.668 µM (active) | EC50 [22]: < 0.1 µM (active)

CCn1cc(C(=O)NCC2CCCO2)c(=O)c2cc(S(=O)(=O)N3CCC(C)CC3)ccc21 (configuration not stated)
IC50 [23]: > 100 µM (not active)

CCc1ccccc1NC(=O)CSc1nc2nnc(C)c-2c(N)n1-c1ccc(OC)cc1
EC50 [24]: 4.1 µM (active)

O=c1nc(NCc2ccco2)sc2ncccc12
IC50 [10]: > 100 µM (inactive) | IC50 [11]: > 100 µM (not active)

O=C(Nc1ncc2c(n1)-c1ccccc1OC2)c1ccc(F)cc1
EC50 [24]: > 69.5 µM (inactive)

O=C(NC1=NCCS1)c1ccc(Cl)cc1
EC50 [19]: 0.744 µM (active) | EC50 [20]: 0.401 µM (active) | EC50 [25]: < 0.1 µM (inconclusive) | EC50 [21]: 0.24 µM (active) | EC50 [22]: 101 µM (active)

COc1ccc(OC)c(C2C(C(=O)Nc3ccccc3OC)=C(C)Nc3nc(CCCO)nn32)c1 (configuration not stated)
IC50 [23]: > 100 µM (not active)

O=C1C(NS(=O)(=O)c2ccc(Br)s2)=C(N2CCCCC2)C(=O)c2ccccc21
AC50 [26]: > 70 µM (inactive) | AC50 [27]: > 70 µM (inactive)

COC(=O)C1=C(C)N(Cc2ccc(C(F)(F)F)cc2)C(NCc2cccc(C(F)(F)F)c2)=NC1c1ccccc1C(F)(F)F (configuration not stated)
IC50 [3]: > 96.6 µM (inactive)

COc1cccc(C2=C(NC(=O)c3ccccc3)C(=O)c3ccccc3C2=O)c1
AC50 [26]: 21 µM (active) | AC50 [27]: 10.5 µM (active)

COc1cc(CNc2ccc(N3CCCC3)cc2)cc(Cl)c1OC
EC50 [28]: 2.95 µM (active) | EC50 [29]: 48.1 µM (inconclusive) | IC50 [30]: > 50 µM (not active) | IC50 [31]: > 80 µM (inactive) | EC50 [32]: > 38 µM (not active) | EC50 [33]: > 30 µM (not active) | CC50 [34]: 4.57 µM (active)
